Experimental data taken from ChEMBL document CHEMBL5357006, “Pestanoid A, a Rearranged Pimarane Diterpenoid Osteoclastogenesis Inhibitor from a Marine Mesophotic Zone Chalinidae Sponge-Associated Fungus, Pestalotiopsis sp. NBUF145” (J Nat Prod, 2024).
Calls of active or inactive are those of the source. The calls are words filed in the database; no cut-off is given here.

Columns and labels:
[1] = test system: Monocyte; experiment: Anti-osteoclastogensis in C57BL/6 mouse bone marrow monocytes assessed as inhibition of RANKL/M-CSF induced osteoclastogenesis at 10 uM incubated for 5 days relative to control; format: functional; details: C57BL/6, Monocyte, 120 h, time 5 day
[2] = test system: Monocyte; experiment: Anti-osteoclastogensis in C57BL/6 mouse bone marrow monocytes assessed as inhibition of RANKL/M-CSF induced osteoclastogenesis at 10 uM incubated for 5 days; format: functional, cell-based; details: C57BL/6, Monocyte, 120 h
[3] = Cytotoxicity against C57BL/6 mouse bone marrow monocytes assessed as reduction in cell viability incubated for 48 hrs by MTT assay; format: toxicity, cell-based, Monocyte
[4] = Selectivity index, ratio of CC50 for cytotoxicity against C57BL/6 mouse bone marrow monocytes to IC50 for anti-osteoclastogensis in C57BL/6 mouse bone marrow monocytes assessed as inhibition of RANKL/M-CSF induced osteoclastogenesis; format: cell-based, Monocyte; details: read-out: Ratio CC50/IC50
[5] = test system: RAW264.7; experiment: Inhibition of RANKL-induced MAPK signaling in mouse RAW264.7 cells assessed as inhibition of ERK1/2 phosphorylation incubated for 60 mins in presence of RANKL by Western blot analysis; format: cell-based; details: dose 5-10 µM
[6] = test system: RAW264.7; experiment: Inhibition of RANKL-induced MAPK signaling in mouse RAW264.7 cells assessed as inhibition of JNK1/2 phosphorylation incubated for 60 mins in presence of RANKL by Western blot analysis; format: cell-based; details: dose 5-10 µM
[7] = test system: RAW264.7; experiment: Inhibition of RANKL-induced MAPK signaling in mouse RAW264.7 cells assessed as inhibition of p38 phosphorylation incubated for 60 mins in presence of RANKL by Western blot analysis; format: cell-based; details: dose 5-10 µM
[8] = test system: RAW264.7; experiment: Inhibition of RANKL-induced NFkappaB signaling in mouse RAW264.7 cells assessed as inhibition of NFkappab nuclear translocation at 10 uM incubated for 60 mins in presence of RANKL by Western blot analysis; format: cell-based

SMILES	inhibition at 10 µM [1]	IC50 [2]	CC50 at 48 h [3]	selectivity ratio [4]	inhibition [5]	inhibition [6]	inhibition [7]	inhibition [8]
C=C1CC[C@@H]2OC(=O)C=C(C[C@]3(C)CC(=O)O[C@H]3CO)C(=O)[C@]2(C)[C@@H]1C	75%	4.2 µM	> 30 µM	> 7	Dose-Dependent Effect	Dose-Dependent Effect	Dose-Dependent Effect	Active
C=C[C@@]1(C)CC(=O)O[C@H]1C1=CC[C@H]2C(C)(C)CC[C@H](O)[C@]2(C)C1=O	88.4%	3 µM	> 30 µM	> 10	Dose-Dependent Effect	Dose-Dependent Effect	Dose-Dependent Effect	Active
